From patent EP3818828A1 (priority 2019, dated 2021)
Converted amounts (≈) assume the structure as drawn.

Experiments:
[1] = test system: E. cichoracearum; experiment: Field efficiency test, cucumber powdery mildew; format: in vivo; conditions: 0.50 mg/mL (active ingredients)
Protocol: (§1) The formulation of emulsifiable concentrate is the same as that in Embodiment 3.
10% of 3-(3',4'-methylenedioxy phenyl)-N-n-propyl acrylamide EC and 14% of 3-(3',4'-methylenedioxy phenyl)-piperidine acrylate EC were diluted at a concentration of 0.50 mg/mL (2000 fold liquid of active ingredients); the control agent, 10% of dimethomorph EW, was also diluted at a concentration of 0.50 mg/mL (2000 fold liquid of active ingredients); the control agent, 80% of mancozeb WP, was diluted at a concentration into a 500 fold liquid according to the usage amount of the formulation; the control agents, 12.5% of myclobutanil EC, 25% of propiconazole EC, 430 g/L of tebuconazole SC, 10% of hexaconazole EC and 37% of difenoconazole EC were all diluted at a concentration into 1500 fold liquids according to the usage amount of the formulation; additionally clear water was used as the control. The first application was started on June 15th, and E. cichoracearum was inoculated on June 17th (the sick leaves were harvested from the solar greenhouse near the military airfield at Xiaguanying town, Yuzhong County, moisturized in the greenhouse for 2 days, then shreded, and filtered over a gauze, the filtrate was sprayed onto both sides of the cucumber leaves with the cone nozzle of an electric sprayer for inoculation). […]

[2] = test system: L.taurica; experiment: Field efficiency test, tomato powdery mildew; format: in vivo; conditions: solar greenhouse
Protocol: as §1
Tomatoes (Variety: Song Tian Fen Yang Yang) were planted in a solar greenhouse. 14% of 3-(3',4'-methylenedioxy phenyl)-piperidine acrylate EC was diluted at four concentrations of 1.00, 0.80, 0.667 and 0.50 mg/mL (active ingredients); the control agent, 72% cream urea·manganese zinc WP was diluted at a concentration of 1.00 mg/mL (active ingredients); additionally clear water was used as the control. The first application was started before the onset of L.taurica. The instrument for application was a WS-18D knapsack electric sprayer, which employed a cone nozzle. Each agent was formulated into the desired concentrations according to the usage amount of the control clear water. Both sides of the tomato leaves were sprayed evenly. Thereafter, applications were conducted every 7 days consecutively for 4 times. 10 days after the fourth application, the number of sick leaves at each grade of powdery mildew was investigated following the grading standard of 9 grades, to calculate the disease index and the control effect.

[3] = test system: Fusarium graminearum; experiment: microbe, parasite or virus in culture; format: cell-based; conditions: for EC50: median inhibition concentration
[4] = test system: damping-off (P. aphanidermatum, P.capsici); experiment: In-vivo greenhouse control of damping-off of tomatoes; conditions: Tomato; sick soil; 0.80 mg/mL (active ingredients)
Protocol: 3.88 g of 3-(3',4'-methylenedioxy phenyl)-N-n-propyl acrylamide was weighed and dissolved in 25 g of absolute ethyl alcohol, then 6 g of emulsifier 0203B was added, and mixed uniformly with stirring to get 10% of 3-(3',4'-methylenedioxy phenyl)-N-n-propyl acrylamide EC.
(§2) 5.61 g of 3-(3',4'-methylenedioxy phenyl)-piperidine acrylate was weighed and dissolved in 25 g of absolute ethyl alcohol, then 6 g of emulsifier 0203B was added, and mixed uniformly with stirring to get 14% of 3-(3',4'-methylenedioxy phenyl)-piperidine acrylate EC.
Sick soil of damping-off (P. aphanidermatum, P.capsici) was collected from the fields of tomatoes, eggplants and peppers in a solar greenhouse, and mixed evenly in equal proportion. Tomatoes (Variety: Song Tian Fen Yang Yang, 100 grains), eggplants (Variety: Lanza No. 2 F1 long eggplant, 100 grains), pepper (Longjiao No. 2 F1, 100 grains) were seeded quantitatively with the sick soil in pots (diameter: 15 cm) in a greenhouse, additionally with sterile vermiculite as the control (each 100 grains for determining the germination rate). […] Mortality of seedlings was investigated after the seedlings had grown 2 true leaves, and the control effect of each treatment on damping-off was calculated. […]

[5] = test system: cucumber powdery mildew; experiment: In-vivo greenhouse determination of systemic action (root-irrigation) on cucumber powdery mildew
Protocol: as §2
Cucumber (Variety: Tianjin Mici) was sown in big pots (with a diameter of 30 cm) in a greenhouse, remaining 3 plants for each pot after emergence. The first root-irrigation was started at the early onset of cucumber powdery mildew (first appearance of spots on the true leaves). 14% of 3-(3',4'-methylenedioxy phenyl)-piperidine acrylate EC was diluted at three concentrations of 1.00, 0.667 and 0.50 mg/mL (active ingredients), 500 mL liquor for each pot. The root-irrigations were conducted every 7 days consecutively for 3 times. 10 days after the third root-irrigation, the number of sick leaves at each grade of cucumber powdery mildew was investigated for the whole plant following the grading standard of 9 grades, to calculate the disease index and the control effect.

| SMILES | Control Effect [1] | Control Effect ([2]; 0.50 mg/mL) | Control Effect ([2]; 0.667 mg/mL) | Control Effect ([2]; 0.80 mg/mL) | Control Effect ([2]; 1.00 mg/mL) | Relative Toxicity (Compared to Chlorothalonil) ([3]; EC50 of chlorothalonil / EC50 of agent) | Relative Toxicity (Compared to Procymidone) ([3]; EC50 of procymidone / EC50 of agent) | EC50 [3] | EC50 ([3]; listed as 66#) | Control Effect [4] | systemic activity ([5]; cucumber powdery mildew, uptake by roots and delivery upwards) | effects of root-irrigations on cucumber powdery mildew ([5]; root-irrigations at 1.00, 0.667 and 0.50 mg/mL at the early onset) |
| --- | --- | --- | --- | --- | --- | --- | --- | --- | --- | --- | --- | --- |
| CCCNC(=O)/C=C/c1ccc2c(c1)OCO2 [3-(3',4'-methylenedioxyphenyl)-N-n-propyl acrylamide] | 88.38% |  |  |  |  |  |  |  |  |  |  |  |
| O=C(/C=C/c1ccc2c(c1)OCO2)N1CCCCC1 [3-(3',4'-methylenedioxyphenyl)-piperidine acrylate] | 69.84% | 81.68% | 88.19% | 90.36% | 97.85% | 5.89 | 1.80 | 80 µg/mL (≈ 309 µM) | 79.6 µg/mL (≈ 307 µM) | 61.41% | no systemic activity | no effects |
